ChEMBL document CHEMBL2434896, “Carbonic anhydrase inhibitors. Synthesis of heterocyclic 4-substituted pyridine-3-sulfonamide derivatives and their inhibition of the human cytosolic isozymes I and II and transmembrane tumor-associated isozymes IX and XII” (Eur J Med Chem, 2013)
pKi: −log10 of the molar value. Active and inactive are the calls of the source. No cut-off for these calls is given here.

Columns and labels:
A549 = test: Growth inhibition of human A549/ATCC cells at 10 uM after 48 hrs by sulforhodamine B assay; format: functional; details: A549, 48 h, read-out: GI
U-251 = test: Growth inhibition of human U251 cells at 10 uM after 48 hrs by sulforhodamine B assay; format: functional; details: U-251, 48 h, read-out: GI
UO-31 = test: Growth inhibition of human UO31 cells at 10 uM after 48 hrs by sulforhodamine B assay; format: functional; details: UO-31, 48 h, read-out: GI
M14 = test: Growth inhibition of human M14 cells at 10 uM after 48 hrs by sulforhodamine B assay; format: functional
MDA-MB-468 = test: Growth inhibition of human MDA-MB-468 cells at 10 uM after 48 hrs by sulforhodamine B assay; format: functional; details: MDA-MB-468, 48 h, read-out: GI
DU-145 = test: Growth inhibition of human DU145 cells at 10 uM after 48 hrs by sulforhodamine B assay; format: functional
MOLT-4 = test: Growth inhibition of human MOLT4 cells at 10 uM after 48 hrs by sulforhodamine B assay; format: functional
HCT-15 = test: Growth inhibition of human HCT15 cells at 10 uM after 48 hrs by sulforhodamine B assay; format: functional
IGROV-1 = test: Growth inhibition of human IGROV1 cells at 10 uM after 48 hrs by sulforhodamine B assay; format: functional
MDA-MB-435 = test: Growth inhibition of human MDA-MB-435 cells at 10 uM after 48 hrs by sulforhodamine B assay; format: functional; details: MDA-MB-435, 48 h, read-out: GI
K562 = test: Growth inhibition of human K562 cells at 10 uM after 48 hrs by sulforhodamine B assay; format: functional; details: K562, 48 h, read-out: GI
SNB-75 = test: Growth inhibition of human SNB75 cells at 10 uM after 48 hrs by sulforhodamine B assay; format: functional; details: SNB-75, 48 h, read-out: GI
OVCAR-4 = test: Growth inhibition of human OVCAR4 cells at 10 uM after 48 hrs by sulforhodamine B assay; format: functional
PC-3 = test: Growth inhibition of human PC3 cells at 10 uM after 48 hrs by sulforhodamine B assay; format: functional; details: PC-3, 48 h, read-out: GI
HCT-116 = test: Growth inhibition of human HCT116 cells at 10 uM after 48 hrs by sulforhodamine B assay; format: functional
SK-MEL-5 = test: Growth inhibition of human SK-MEL-5 cells at 10 uM after 48 hrs by sulforhodamine B assay; format: functional
NCI-H226 = test: Growth inhibition of human NCI-H226 cells at 10 uM after 48 hrs by sulforhodamine B assay; format: functional; details: NCI-H226, 48 h, read-out: GI
786-0 = test: Growth inhibition of human 786-0 cells at 10 uM after 48 hrs by sulforhodamine B assay; format: functional; details: 786-0, 48 h, read-out: GI
RPMI-8226 = test: Growth inhibition of human RPMI8226 cells at 10 uM after 48 hrs by sulforhodamine B assay; format: functional; details: RPMI-8226, 48 h, read-out: GI
NCI-H322M = test: Growth inhibition of human NCI-H322M cells at 10 uM after 48 hrs by sulforhodamine B assay; format: functional
MDA-MB-231 = test: Growth inhibition of human MDA-MB-231 cells at 10 uM after 48 hrs by sulforhodamine B assay; format: functional
ACHN = test: Growth inhibition of human ACHN cells at 10 uM after 48 hrs by sulforhodamine B assay; format: functional
HT-29 = test: Growth inhibition of human HT-29 cells at 10 uM after 48 hrs by sulforhodamine B assay; format: functional
HOP-92 = test: Growth inhibition of human HOP92 cells at 10 uM after 48 hrs by sulforhodamine B assay; format: functional
NCI-H522 = test: Growth inhibition of human NCI-H522 cells at 10 uM after 48 hrs by sulforhodamine B assay; format: functional
SN12C = test: Growth inhibition of human SN12C cells at 10 uM after 48 hrs by sulforhodamine B assay; format: functional; details: read-out: GI
A498 = test: Growth inhibition of human A498 cells at 10 uM after 48 hrs by sulforhodamine B assay; format: functional
SF-295 = test: Growth inhibition of human SF295 cells at 10 uM after 48 hrs by sulforhodamine B assay; format: functional
SK-OV-3 = test: Growth inhibition of human SKOV3 cells at 10 uM after 48 hrs by sulforhodamine B assay; format: functional
NCI-H460 = test: Growth inhibition of human NCI-H460 cells at 10 uM after 48 hrs by sulforhodamine B assay; format: functional
CCRF-CEM = test: Growth inhibition of human CCRF-CEM cells at 10 uM after 48 hrs by sulforhodamine B assay; format: functional; details: read-out: GI
SR = test: Growth inhibition of human SR cells at 10 uM after 48 hrs by sulforhodamine B assay; format: functional; details: read-out: GI
T47D = test: Growth inhibition of human T47D cells at 10 uM after 48 hrs by sulforhodamine B assay; format: functional; details: read-out: GI
SK-MEL-28 = test: Growth inhibition of human SK-MEL-28 cells at 10 uM after 48 hrs by sulforhodamine B assay; format: functional, cell-based
SW-620 = test: Growth inhibition of human SW620 cells at 10 uM after 48 hrs by sulforhodamine B assay; format: functional
SNB-19 = test: Growth inhibition of human SNB19 cells at 10 uM after 48 hrs by sulforhodamine B assay; format: functional
Carbonic anhydrase 9 = Carbonic anhydrase 9 (Homo sapiens, UniProt Q16790); test: Inhibition of human carbonic anhydrase 9 after 15 mins by stopped flow CO2 hydration assay
HOP-62 = test: Growth inhibition of human HOP62 cells at 10 uM after 48 hrs by sulforhodamine B assay; format: functional
Malme-3M = test: Growth inhibition of human MALME-3M cells at 10 uM after 48 hrs by sulforhodamine B assay; format: functional
SF-539 = test: Growth inhibition of human SF539 cells at 10 uM after 48 hrs by sulforhodamine B assay; format: functional
HL-60(TB) = test: Growth inhibition of human HL-60(TB) cells at 10 uM after 48 hrs by sulforhodamine B assay; format: functional
OVCAR-3 = test: Growth inhibition of human OVCAR3 cells at 10 uM after 48 hrs by sulforhodamine B assay; format: functional
KM12 = test: Growth inhibition of human KM12 cells at 10 uM after 48 hrs by sulforhodamine B assay; format: functional
TK-10 = test: Growth inhibition of human TK10 cells at 10 uM after 48 hrs by sulforhodamine B assay; format: functional
UACC-257 = test: Growth inhibition of human UACC257 cells at 10 uM after 48 hrs by sulforhodamine B assay; format: functional
NCI/ADR-RES = test: Growth inhibition of human NCI-ADR-RES cells at 10 uM after 48 hrs by sulforhodamine B assay; format: functional

SMILES: NS(=O)(=O)c1cnccc1N1CCN(c2ccccn2)CC1
- inhibition of growth at 10 µM (A549): 2%
- inhibition of growth at 10 µM (U-251): 6%
- inhibition of growth at 10 µM (UO-31): 11%
- growth inhibition (GI) (M14): inactive
- inhibition of growth at 10 µM (MDA-MB-468): 1%
- inhibition of growth at 10 µM (DU-145; DU-145, 48 h, read-out: GI): 8%
- growth inhibition (GI) (MOLT-4): inactive
- growth inhibition (GI) (HCT-15): inactive
- growth inhibition (GI) (IGROV-1): inactive
- inhibition of growth at 10 µM (MDA-MB-435): 2%
- inhibition of growth at 10 µM (K562): 4%
- inhibition of growth at 10 µM (SNB-75): 12%
- growth inhibition (GI) (OVCAR-4): inactive
- inhibition of growth at 10 µM (PC-3): 1%
- inhibition of growth at 10 µM (HCT-116; HCT-116, 48 h, read-out: GI): 1%
- growth inhibition (GI) (SK-MEL-5): inactive
- inhibition of growth at 10 µM (NCI-H226): 5%
- inhibition of growth at 10 µM (786-0): 2%
- inhibition of growth at 10 µM (RPMI-8226): 5%
- growth inhibition (GI) (NCI-H322M): inactive
- growth inhibition (GI) (MDA-MB-231): inactive
- growth inhibition (GI) (ACHN): inactive
- growth inhibition (GI) (HT-29): inactive
- inhibition of growth at 10 µM (HOP-92; HOP-92, 48 h, read-out: GI): 11%
- growth inhibition (GI) (NCI-H522): inactive
- inhibition of growth at 10 µM (SN12C): 4%
- inhibition of growth at 10 µM (A498; A498, 48 h, read-out: GI): 24%
- growth inhibition (GI) (SF-295): inactive
- growth inhibition (GI) (SK-OV-3): inactive
- growth inhibition (GI) (NCI-H460): inactive
- inhibition of growth at 10 µM (CCRF-CEM): 5%
- inhibition of growth at 10 µM (SR): 12%
- inhibition of growth at 10 µM (T47D): 8%
- growth inhibition (GI) (SK-MEL-28): inactive
- inhibition of growth at 10 µM (SW-620; SW-620, 48 h, read-out: GI): 1%
- growth inhibition (GI) (SNB-19): inactive
- pKi (Carbonic anhydrase 9): 6.95
- growth inhibition (GI) (HOP-62): inactive
- inhibition of growth at 10 µM (Malme-3M; read-out: GI): 8%
- growth inhibition (GI) (SF-539): inactive
- growth inhibition (GI) (HL-60(TB)): inactive
- growth inhibition (GI) (OVCAR-3): inactive
- growth inhibition (GI) (KM12): inactive
- growth inhibition (GI) (TK-10): inactive
- inhibition of growth at 10 µM (UACC-257; UACC-257, 48 h, read-out: GI): 2%

SMILES: COc1ccccc1N1CCN(c2ccncc2S(N)(=O)=O)CC1
- inhibition of growth at 10 µM (U-251): 1%
- inhibition of growth at 10 µM (UO-31): 10%
- growth inhibition (GI) (NCI/ADR-RES): inactive
- growth inhibition (GI) (M14): inactive
- inhibition of growth at 10 µM (MDA-MB-468): 2%
- growth inhibition (GI) (DU-145): inactive
- inhibition of growth at 10 µM (MOLT-4; MOLT-4, 48 h, read-out: GI): 20%
- growth inhibition (GI) (HCT-15): inactive
- growth inhibition (GI) (IGROV-1): inactive
- inhibition of growth at 10 µM (MDA-MB-435): 2%
- inhibition of growth at 10 µM (K562): 9%
- inhibition of growth at 10 µM (SNB-75): 10%
- inhibition of growth at 10 µM (OVCAR-4; OVCAR-4, 48 h, read-out: GI): 2%
- inhibition of growth at 10 µM (PC-3): 10%
- growth inhibition (GI) (HCT-116): inactive
- growth inhibition (GI) (SK-MEL-5): inactive
- inhibition of growth at 10 µM (NCI-H226): 3%
- inhibition of growth at 10 µM (786-0): 3%
- inhibition of growth at 10 µM (RPMI-8226): 3%
- growth inhibition (GI) (NCI-H322M): inactive
- growth inhibition (GI) (MDA-MB-231): inactive
- growth inhibition (GI) (ACHN): inactive
- inhibition of growth at 10 µM (HT-29; HT-29, 48 h, read-out: GI): 4%
- growth inhibition (GI) (HOP-92): inactive
- growth inhibition (GI) (NCI-H522): inactive
- inhibition of growth at 10 µM (SN12C): 11%
- growth inhibition (GI) (A498): inactive
- inhibition of growth at 10 µM (SF-295; SF-295, 48 h, read-out: GI): 3%
- growth inhibition (GI) (SK-OV-3): inactive
- growth inhibition (GI) (NCI-H460): inactive
- inhibition of growth at 10 µM (CCRF-CEM): 7%
- inhibition of growth at 10 µM (SR): 17%
- inhibition of growth at 10 µM (T47D): 2%
- growth inhibition (GI) (SK-MEL-28): inactive
- growth inhibition (GI) (SW-620): inactive
- growth inhibition (GI) (SNB-19): inactive
- pKi (Carbonic anhydrase 9): 6.19
- inhibition of growth at 10 µM (HOP-62; HOP-62, 48 h, read-out: GI): 2%
- growth inhibition (GI) (Malme-3M): inactive
- inhibition of growth at 10 µM (SF-539; SF-539, 48 h, read-out: GI): 5%
- growth inhibition (GI) (OVCAR-3): inactive
- growth inhibition (GI) (KM12): inactive
- growth inhibition (GI) (UACC-257): inactive
